Values after ≈ are worked out from the molar mass of the structure shown.
Tested on: M17-SYNwt cells
Test: α-synuclein cytotoxicity assay (LDH leakage from paraquat-treated α-synuclein over-expressing neuroblastoma cells)
Assay type: cell-based, human
Conditions: for EC50: Homo sapiens, Neuroblastoma cell; for EC50 / %I / EC50 (µg/mL): paraquat 32 mM, 40 hours, LDH release; for EC50 / EC50 (µg/mL): 10 point curves in duplicate; for %I: percent inhibition of synuclein cytotoxicity at most effective concentration of test compound, relative to untreated paraquat cells
Description: Subsequently, LDH activity was determined using Promega Cytotox 96 NonRadioactive cytotoxicity assay, (Cat. G1780) according the supplier's instructions.
This corresponds to the following equation: (LDHreleaseoftreatedparaquatcellsatnon-effectiveconcentrationoftestcmpd)−(LDHreleaseoftreatedparaquatcellsatmosteffectiveconcentrationoftestcmpd)/(LDHreleaseofuntreatedparaquatcells)−(LDHreleasecontrolcells)*100% [formula]
1,2,4-thiadazole compounds made according to the methods described herein were screened for activity using the α-synuclein cytotoxicity assay as described above. Dose responses were carried out on all compounds found to be active (10 point curves in duplicate).

Molecule | EC50 [µg/mL] | %I [%] | EC50 (µg/mL) | LDH activity in the medium (Figure 2, dose response in paraquat-treated M17-SYNwt cells)
CC1CN(c2nc(Cc3ccc(Cl)cc3)ns2)CCN1S(=O)(=O)c1cccc2ccccc12 (stereo not shown) [Compound 43, 1-[1-naphtylsulfonyl]-4-[3-(4-chlorobenzyl)-1,2,4-thiadiazol-5-yl]-2-methylpiperazine] | 0.89 (≈ 1.78 µM) | 35 |  | 
O=C(c1ccc(F)cc1)N1CCN(c2nc(Cc3ccccc3)ns2)CC1 [Compound 163, 1-(4-fluorobenzoyl)-4-[3-benzyl-1,2,4-thiadiazol-5-yl]piperazine] | 3.61 (≈ 9.44 µM) | 67 |  | 
COc1ccc(CC(=O)N2CCN(c3nc(Cc4ccc(F)cc4)ns3)CC2C)cc1 (stereo not shown) [Compound 4, 1-(4-methoxyphenylacetyl)-4-[3-(4-fluorobenzyl)-1,2,4-thiadiazol-5-yl]-2-methylpiperazine] | 0.82 (≈ 1.86 µM) | 56 |  | 
Cc1ccc(C(=O)NCCN2CCN(c3nc(Cc4ccc(F)cc4)ns3)CC2)cc1 [Compound 101, 4-methyl-N-{2-[4-[3-(4-fluorobenzyl)-1,2,4-thiadiazol-5-yl]piperazin-1-yl]ethyl}benzamide] | 1.94 (≈ 4.41 µM) | 68 |  | 
CCOc1ccc(NC(=O)N2CCN(c3nc(Cc4ccc(F)cc4)ns3)CC2C)cc1 (stereo not shown) [Compound 14, N-(4-ethoxyphenyl)-4-[3-(4-fluorobenzyl)-1,2,4-thiadiazol-5-yl]-2-methylpiperazine-1-carboxamide] | 1.73 (≈ 3.8 µM) | 70 |  | 
COc1ccc(S(=O)(=O)N2CCN(c3nc(Cc4ccccc4F)ns3)CC2)cc1 [Compound 194, 1-[4-methoxyphenylsulfonyl]-4-[3-(2-fluoro-benzyl)-1,2,4-thiadiazol-5-yl]piperazine] | 0.0012 (≈ 0.00268 µM) | 102 |  | 
Cc1ccc(Cc2nsc(N3CCN(S(=O)(=O)c4c(C)cc(C)cc4C)CC3)n2)cc1 [Compound 37, 1-[2,4,6-trimethylphenylsulfonyl]-4-[3-(4-methylbenzyl)-1,2,4-thiadiazol-5-yl]piperazine] | 0.0731 (≈ 0.16 µM) | 48 |  | 
COc1ccc(S(=O)(=O)N2CCN(c3nc(Cc4ccccc4OC)ns3)CC2)cc1 [Compound 203] | 0.0062 (≈ 0.0135 µM) | 61 |  | 
Cc1ccccc1C(=O)N1CCN(c2nc(Cc3ccc(F)cc3)ns2)CC1 [Compound 152, 1-(2-methylbenzoyl)-4-[3-(4-fluorobenzyl)-1,2,4-thiadiazol-5-yl]piperazine] | 1.15 (≈ 2.9 µM) | 66 |  | 
Cc1ccc(Cc2nsc(N3CCN(S(=O)(=O)c4ccc(Cl)cc4)C(C)C3)n2)cc1 (stereo not shown) [Compound 34, 1-[4-chlorophenylsulfonyl]-4-[3-(4-methylbenzyl)-1,2,4-thiadiazol-5-yl]-2-methylpiperazine] | 0.0657 (≈ 0.142 µM) | 66 |  | 
Cc1ccc(Cc2nsc(N3CCN(C(=O)c4ccc(C(C)(C)C)cc4)CC3)n2)cc1 [Compound 183, 1-(4-tert-butylbenzoyl)-4-[3-(4-methylbenzyl)-1,2,4-thiadiazol-5-yl]piperazine] |  | 52 |  | 
1-[3-trifluorophenylsulfonyl]-4-[3-(4-fluorobenzyl)-1,2,4-thiadiazol-5-yl]-2-methylpiperazine [Compound 46] |  | 64 | 1,34 µg/mL | 
Cc1ccc(Cc2nsc(N3CCN(S(=O)(=O)c4ccc(C(C)(C)C)cc4)C(C)C3)n2)cc1 (stereo not shown) [Compound 42, 1-[4-tert-butylphenylsulfonyl]-4-[3-(4-methylbenzyl)-1,2,4-thiadiazol-5-yl]-2-methylpiperazine] | 0.87 (≈ 1.79 µM) | 33 |  | 
O=C(CCc1ccccc1)N1CCN(c2nc(Cc3ccc(F)cc3)ns2)CC1 [Compound 90, 1-(3-phenylpropanoyl)-4-[3-(4-fluorobenzyl)-1,2,4-thiadiazol-5-yl]piperazine] | 1.41 (≈ 3.43 µM) | 73 |  | 
CCCCCc1ccc(C(=O)N2CCN(c3nc(Cc4ccc(C)cc4)ns3)CC2C)cc1 (stereo not shown) [Compound 134, 1-(4-pentylbenzoyl)-4-[3-(4-methylbenzyl)-1,2,4-thiadiazol-5-yl]-2-methylpiperazine] | 0.3 (≈ 0.648 µM) | 75 |  | 
COc1cccc(Cc2nsc(N3CCN(C(=O)c4ccccc4F)C(C)C3)n2)c1 (stereo not shown) [Compound 115, 1-(2-fluorobenzoyl)-4-[3-(3-methoxybenzyl)-1,2,4-thiadiazol-5-yl]-2-methylpiperazine] | 0.0361 (≈ 0.0846 µM) | 75 |  | 
Cc1ccc(Cc2nsc(N3CCN(C(=O)Cc4ccc(F)cc4)C(C)C3)n2)cc1 (stereo not shown) [Compound 3, 1-(4-fluorophenylacetyl)-4-[3-(4-methylbenzyl)-1,2,4-thiadiazol-5-yl]-2-methylpiperazine] | 2.2 (≈ 5.18 µM) | 76 |  | 
2-phenyl-N-{2-[4-[3-(4-fluorobenzyl)-1,2,4-thiadiazol-5-yl]piperazin-1-yl]ethyl}butanamide [Compound 111] |  | 79 | 1,79 µg/mL | able, in a dose-dependent manner, to reduce LDH activity in the medium
CCc1ccccc1NC(=O)N1CCN(c2nc(Cc3ccc(F)cc3)ns2)CC1C (stereo not shown) [Compound 12, N-(2-ethylphenyl)-4-[3-(4-fluorobenzyl)-1,2,4-thiadiazol-5-yl]-2-methylpiperazine-1-carboxamide] | 0.89 (≈ 2.02 µM) | 92 |  | 
CC1CN(c2nc(Cc3ccc(F)cc3)ns2)CCN1S(=O)(=O)c1ccc([N+](=O)[O-])cc1 (stereo not shown) [Compound 73, 1-[4-nitrophenylsulfonyl]-4-[3-(4-fluorobenzyl)-1,2,4-thiadiazol-5-yl]-2-methylpiperazine] |  | 33 |  | 
1-(phenylprop-2-ensulfonyl)-4-[3-(4-fluorobenzyl)-1,2,4-thiadiazol-5-yl]piperazine [Compound 78] |  | 75 | 0,13 µg/mL | 
Cc1ccc(Cc2nsc(N3CCN(C(=O)c4cccc(F)c4)C(C)C3)n2)cc1 (stereo not shown) [Compound 156, 1-(3-fluorobenzoyl)-4-[3-(4-methylbenzyl)-1,2,4-thiadiazol-5-yl]-2-methylpiperazine] | 1.67 (≈ 4.07 µM) | 86 |  | 
COc1ccc(S(=O)(=O)N2CCN(c3nc(Cc4ccc(Cl)cc4)ns3)CC2C)cc1 (stereo not shown) [Compound 51, 1-[4-methoxyphenylsulfonyl]-4-[3-(4-chlorobenzyl)-1,2,4-thiadiazol-5-yl]-2-methylpiperazine] | 0.00135 (≈ 0.00281 µM) | 94 |  | 
COc1cccc(Cc2nsc(N3CCN(C(=O)c4ccc(C)cc4)C(C)C3)n2)c1 (stereo not shown) [Compound 124, 1-(4-methylbenzoyl)-4-[3-(3-methoxybenzyl)-1,2,4-thiadiazol-5-yl]-2-methylpiperazine] | 0.14 (≈ 0.331 µM) | 57 |  | 
Cc1ccc(Cc2nsc(N3CCN(S(=O)(=O)c4ccc(F)cc4)C(C)C3)n2)cc1 (stereo not shown) [Compound 58, 1-[4-fluorophenylsulfonyl]-4-[3-(4-methylbenzyl)-1,2,4-thiadiazol-5-yl]-2-methylpiperazine] | 0.061 (≈ 0.137 µM) | 58 |  | 
COc1ccc(C(=O)N2CCN(c3nc(Cc4ccc(F)cc4)ns3)CC2C)c(OC)c1 (stereo not shown) [Compound 136, 1-(2,4-dimethoxybenzoyl)-4-[3-(4-fluorobenzyl)-1,2,4-thiadiazol-5-yl]-2-methylpiperazine] | 0.34 (≈ 0.745 µM) | 83 |  | 
CC1CN(c2nc(Cc3ccc(Cl)cc3)ns2)CCN1C(=O)c1ccccc1F (stereo not shown) [Compound 167, 1-(2-fluorobenzoyl)-4-[3-(4-chlorobenzyl)-1,2,4-thiadiazol-5-yl]-2-methylpiperazine] |  | 117 |  | 
